Key:
[1] = target: Mitogen-activated protein kinase kinase kinase 1 (Homo sapiens) (UniProt Q13233); assay: Binding affinity to wild-type human partial length MAP3K1 (L1202 to W1512 residues) expressed in mammalian expression system assessed as residual binding level at 1 uM by Kinomescan method relative to control
[2] = target: Serine/threonine-protein kinase TBK1 (Homo sapiens) (UniProt Q9UHD2); assay: Binding affinity to wild-type human full length TBK1 (M1 to L729 residues) expressed in mammalian expression system assessed as residual binding level at 1 uM by Kinomescan method relative to control
[3] = target: Tyrosine-protein kinase JAK3 (Homo sapiens) (UniProt P52333); assay: Binding affinity to wild-type human partial length JAK3 JH1 catalytic domain (I781 to S1124 residues) expressed in mammalian expression system assessed as residual binding level at 1 uM by Kinomescan method relative to control
[4] = target: Cyclin-dependent kinase 3 (Homo sapiens) (UniProt Q00526); assay: Binding affinity to wild-type human full length CDK3 (M1 to H305 residues) expressed in bacterial expression system assessed as residual binding level at 1 uM by Kinomescan method relative to control
[5] = target: Death-associated protein kinase 2 (Homo sapiens) (UniProt Q9UIK4); assay: Binding affinity to wild-type human full length DAPK2 (M1 to S370 residues) expressed in bacterial expression system assessed as residual binding level at 1 uM by Kinomescan method relative to control
[6] = target: Serine/threonine-protein kinase DCLK2 (Homo sapiens) (UniProt Q8N568); assay: Binding affinity to wild-type human partial length DCAMKL2 (K273 to V664 residues) expressed in bacterial expression system assessed as residual binding level at 1 uM by Kinomescan method relative to control
[7] = target: Tyrosine-protein kinase Srms (Homo sapiens) (UniProt Q9H3Y6); assay: Binding affinity to wild-type human partial length SRMS (L208 to P488 residues) expressed in mammalian expression system assessed as residual binding level at 1 uM by Kinomescan method relative to control
[8] = target: Fibroblast growth factor receptor 3 (Homo sapiens) (UniProt P22607); assay: Binding affinity to wild-type human partial length FGFR3 (R442 to S771 residues) expressed in bacterial expression system assessed as residual binding level at 1 uM by Kinomescan method relative to control
[9] = target: Tyrosine-protein kinase Mer (Homo sapiens) (UniProt Q12866); assay: Binding affinity to wild-type human partial length MERTK (R557 to L884 residues) expressed in bacterial expression system assessed as residual binding level at 1 uM by Kinomescan method relative to control
[10] = target: Protein kinase C eta type (Homo sapiens) (UniProt P24723); assay: Binding affinity to wild-type human partial length PRKCH (S324 to P683 residues) expressed in bacterial expression system assessed as residual binding level at 1 uM by Kinomescan method relative to control
[11] = target: Cyclin-dependent kinase 7 (Homo sapiens) (UniProt P50613); assay: Binding affinity to wild-type human full length CDK7 (M1 to L344 residues) expressed in mammalian expression system assessed as residual binding level at 1 uM by Kinomescan method relative to control
[12] = target: Serine/threonine-protein kinase 35 (Homo sapiens) (UniProt Q8TDR2); assay: Binding affinity to wild-type human partial length STK35 (G182 to A534 residues) expressed in bacterial expression system assessed as residual binding level at 1 uM by Kinomescan method relative to control
[13] = tested on: Phosphatidylinositol 4,5-bisphosphate 3-kinase catalytic subunit alpha isoform (Homo sapiens), P42336 [Q546K]; assay: Binding affinity to human partial length PIK3CA Q546K mutant (R108 to N1068 residues) expressed in mammalian expression system assessed as residual binding level at 1 uM by Kinomescan method relative to control
[14] = target: Tyrosine-protein kinase BTK (Homo sapiens) (UniProt Q06187); assay: Binding affinity to wild-type human full length BTK (M1 to S659 residues) expressed in mammalian expression system assessed as residual binding level at 1 uM by Kinomescan method relative to control
[15] = target: Ribosomal protein S6 kinase beta-1 (Homo sapiens) (UniProt P23443); assay: Binding affinity to wild-type human partial length S6K1 (M1 to S421 residues) expressed in mammalian expression system assessed as residual binding level at 1 uM by Kinomescan method relative to control
[16] = target: NUAK family SNF1-like kinase 2 (Homo sapiens) (UniProt Q9H093); assay: Binding affinity to wild-type human partial length SNARK (P22 to A333 residues) expressed in mammalian expression system assessed as residual binding level at 1 uM by Kinomescan method relative to control
[17] = tested on: Phosphatidylinositol 4,5-bisphosphate 3-kinase catalytic subunit alpha isoform (Homo sapiens), P42336 [E545K]; assay: Binding affinity to human partial length PIK3CA E545K mutant (R108 to N1068 residues) expressed in mammalian expression system assessed as residual binding level at 1 uM by Kinomescan method relative to control
[18] = tested on: Tyrosine-protein kinase ABL1 (Homo sapiens), P00519 [T315I]; assay: Binding affinity to human phosphorylated ABL1 T315I mutant (S229 to K512 residues) expressed in mammalian expression system assessed as residual binding level at 1 uM by Kinomescan method relative to control
[19] = target: Dual specificity protein kinase TTK (Homo sapiens) (UniProt P33981); assay: Binding affinity to wild-type human partial length TTK (N505 to V798 residues) expressed in bacterial expression system assessed as residual binding level at 1 uM by Kinomescan method relative to control
[20] = target: Receptor-interacting serine/threonine-protein kinase 1 (Homo sapiens) (UniProt Q13546); assay: Binding affinity to wild-type human partial length RIPK1 (M1 to K305 residues) expressed in bacterial expression system assessed as residual binding level at 1 uM by Kinomescan method relative to control
[21] = target: Serine/threonine-protein kinase 33 (Homo sapiens) (UniProt Q9BYT3); assay: Binding affinity to wild-type human full length STK33 (M1 to L514 residues) expressed in bacterial expression system assessed as residual binding level at 1 uM by Kinomescan method relative to control
[22] = tested on: Receptor-type tyrosine-protein kinase FLT3 (Homo sapiens), P36888 [N841I]; assay: Binding affinity to human partial length FLT3 N841I mutant (V592 to Y969 residues) expressed in bacterial expression system assessed as residual binding level at 1 uM by Kinomescan method relative to control
[23] = target: Tyrosine-protein kinase CSK (Homo sapiens) (UniProt P41240); assay: Binding affinity to wild-type human full length CSK (M1 to L450 residues) expressed in bacterial expression system assessed as residual binding level at 1 uM by Kinomescan method relative to control
[24] = target: Death-associated protein kinase 3 (Homo sapiens) (UniProt O43293); assay: Binding affinity to wild-type human partial length DAPK3 (M1 to A277 residues) expressed in bacterial expression system assessed as residual binding level at 1 uM by Kinomescan method relative to control
Death-associated protein kinase 3 (Homo sapiens), sequence (O43293 whole entry, looked up, the tested form may be a part): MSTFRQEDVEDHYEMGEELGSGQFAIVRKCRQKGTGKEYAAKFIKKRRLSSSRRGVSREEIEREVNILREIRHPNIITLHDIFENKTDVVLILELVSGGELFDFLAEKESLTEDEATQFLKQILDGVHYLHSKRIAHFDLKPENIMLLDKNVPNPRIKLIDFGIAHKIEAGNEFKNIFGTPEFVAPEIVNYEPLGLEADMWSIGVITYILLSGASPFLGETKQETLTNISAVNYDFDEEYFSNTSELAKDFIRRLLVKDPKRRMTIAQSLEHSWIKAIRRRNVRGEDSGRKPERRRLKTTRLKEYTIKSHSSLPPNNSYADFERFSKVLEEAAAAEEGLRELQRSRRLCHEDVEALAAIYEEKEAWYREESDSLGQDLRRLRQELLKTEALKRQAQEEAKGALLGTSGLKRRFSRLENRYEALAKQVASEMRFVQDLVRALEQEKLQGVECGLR

Fibroblast growth factor receptor 3 (Homo sapiens), sequence (P22607 23-806 limits assumed): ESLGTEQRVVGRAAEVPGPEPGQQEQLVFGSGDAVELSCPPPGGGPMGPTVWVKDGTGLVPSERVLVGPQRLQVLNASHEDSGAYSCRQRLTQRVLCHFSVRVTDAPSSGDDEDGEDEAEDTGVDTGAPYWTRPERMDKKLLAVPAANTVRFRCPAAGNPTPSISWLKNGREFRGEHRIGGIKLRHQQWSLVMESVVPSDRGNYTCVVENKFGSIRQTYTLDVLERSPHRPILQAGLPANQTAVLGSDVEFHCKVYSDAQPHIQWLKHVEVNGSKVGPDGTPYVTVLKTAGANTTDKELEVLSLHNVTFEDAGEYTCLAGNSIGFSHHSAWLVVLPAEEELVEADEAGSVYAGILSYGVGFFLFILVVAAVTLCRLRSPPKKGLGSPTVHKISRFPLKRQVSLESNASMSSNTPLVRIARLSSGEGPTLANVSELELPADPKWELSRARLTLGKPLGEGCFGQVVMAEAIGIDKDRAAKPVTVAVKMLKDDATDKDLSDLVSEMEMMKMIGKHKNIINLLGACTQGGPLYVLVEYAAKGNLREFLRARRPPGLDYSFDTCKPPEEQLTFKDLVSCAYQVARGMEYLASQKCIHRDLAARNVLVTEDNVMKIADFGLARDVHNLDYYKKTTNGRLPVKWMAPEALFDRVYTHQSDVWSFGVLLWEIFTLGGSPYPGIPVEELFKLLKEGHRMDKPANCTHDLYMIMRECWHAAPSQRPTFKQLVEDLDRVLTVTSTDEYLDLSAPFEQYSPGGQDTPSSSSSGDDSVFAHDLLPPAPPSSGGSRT
Ribosomal protein S6 kinase beta-1 (Homo sapiens), sequence (P23443 whole entry, looked up, the tested form may be a part): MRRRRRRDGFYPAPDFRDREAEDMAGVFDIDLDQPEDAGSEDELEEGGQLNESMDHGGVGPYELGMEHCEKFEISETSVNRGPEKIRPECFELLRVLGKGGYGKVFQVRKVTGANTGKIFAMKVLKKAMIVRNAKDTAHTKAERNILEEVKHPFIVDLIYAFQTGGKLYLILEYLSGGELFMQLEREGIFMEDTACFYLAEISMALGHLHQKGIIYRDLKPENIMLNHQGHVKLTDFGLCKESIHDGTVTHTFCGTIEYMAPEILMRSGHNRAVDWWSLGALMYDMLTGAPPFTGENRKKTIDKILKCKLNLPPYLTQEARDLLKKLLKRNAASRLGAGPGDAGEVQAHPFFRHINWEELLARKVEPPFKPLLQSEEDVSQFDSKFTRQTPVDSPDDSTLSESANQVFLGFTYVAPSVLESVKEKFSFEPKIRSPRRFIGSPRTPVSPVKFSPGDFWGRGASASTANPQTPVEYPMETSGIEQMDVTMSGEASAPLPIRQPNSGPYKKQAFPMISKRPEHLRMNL
Tyrosine-protein kinase BTK (Homo sapiens), sequence (Q06187 whole entry, the tested form may be a part): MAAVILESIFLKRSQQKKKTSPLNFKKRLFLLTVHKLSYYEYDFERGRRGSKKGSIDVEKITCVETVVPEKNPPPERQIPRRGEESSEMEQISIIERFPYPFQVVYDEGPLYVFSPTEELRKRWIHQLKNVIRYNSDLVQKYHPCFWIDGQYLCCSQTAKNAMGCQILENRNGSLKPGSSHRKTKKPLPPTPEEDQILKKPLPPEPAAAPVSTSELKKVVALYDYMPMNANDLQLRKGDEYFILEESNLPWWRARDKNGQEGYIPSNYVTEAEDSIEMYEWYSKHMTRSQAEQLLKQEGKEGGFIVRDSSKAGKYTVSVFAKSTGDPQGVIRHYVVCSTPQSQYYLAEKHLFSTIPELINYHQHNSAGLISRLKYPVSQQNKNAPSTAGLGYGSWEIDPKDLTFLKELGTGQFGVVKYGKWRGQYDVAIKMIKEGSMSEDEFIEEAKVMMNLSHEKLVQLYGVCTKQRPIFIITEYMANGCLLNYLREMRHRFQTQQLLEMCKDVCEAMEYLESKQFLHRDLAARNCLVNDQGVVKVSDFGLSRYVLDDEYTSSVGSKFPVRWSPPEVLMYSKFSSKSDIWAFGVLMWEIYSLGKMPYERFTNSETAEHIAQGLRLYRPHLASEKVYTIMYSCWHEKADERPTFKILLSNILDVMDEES
Phosphatidylinositol 4,5-bisphosphate 3-kinase catalytic subunit alpha isoform (Homo sapiens), P42336 [Q546K], sequence (P42336 whole entry Q546K, the tested form may be a part, canonical isoform): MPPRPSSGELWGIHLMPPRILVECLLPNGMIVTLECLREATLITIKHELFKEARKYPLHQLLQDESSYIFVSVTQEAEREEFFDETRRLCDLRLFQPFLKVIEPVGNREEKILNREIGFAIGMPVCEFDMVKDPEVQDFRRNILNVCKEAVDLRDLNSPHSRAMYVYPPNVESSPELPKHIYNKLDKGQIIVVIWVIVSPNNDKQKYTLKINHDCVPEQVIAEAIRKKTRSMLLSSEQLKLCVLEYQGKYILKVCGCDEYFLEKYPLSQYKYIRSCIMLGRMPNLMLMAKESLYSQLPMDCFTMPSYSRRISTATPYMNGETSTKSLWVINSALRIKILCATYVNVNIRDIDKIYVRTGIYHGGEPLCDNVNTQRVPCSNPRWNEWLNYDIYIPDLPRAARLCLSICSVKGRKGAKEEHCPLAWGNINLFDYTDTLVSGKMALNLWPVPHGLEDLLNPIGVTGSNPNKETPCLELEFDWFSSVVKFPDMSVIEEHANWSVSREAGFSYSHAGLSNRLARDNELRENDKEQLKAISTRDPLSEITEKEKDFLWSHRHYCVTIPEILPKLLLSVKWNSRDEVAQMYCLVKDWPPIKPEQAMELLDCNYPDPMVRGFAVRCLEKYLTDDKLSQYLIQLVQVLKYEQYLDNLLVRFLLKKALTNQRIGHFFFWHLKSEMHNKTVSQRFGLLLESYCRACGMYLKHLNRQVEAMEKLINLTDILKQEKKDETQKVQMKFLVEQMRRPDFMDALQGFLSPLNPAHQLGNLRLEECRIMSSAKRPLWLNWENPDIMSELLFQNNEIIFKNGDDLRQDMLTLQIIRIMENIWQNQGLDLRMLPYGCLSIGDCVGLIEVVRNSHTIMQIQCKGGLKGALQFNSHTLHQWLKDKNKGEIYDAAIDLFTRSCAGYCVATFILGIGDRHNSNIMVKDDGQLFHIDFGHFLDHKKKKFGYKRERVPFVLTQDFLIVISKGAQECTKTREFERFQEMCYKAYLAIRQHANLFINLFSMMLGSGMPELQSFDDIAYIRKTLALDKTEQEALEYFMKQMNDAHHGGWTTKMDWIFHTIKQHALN
NUAK family SNF1-like kinase 2 (Homo sapiens), sequence (Q9H093 whole entry, the tested form may be a part, canonical isoform): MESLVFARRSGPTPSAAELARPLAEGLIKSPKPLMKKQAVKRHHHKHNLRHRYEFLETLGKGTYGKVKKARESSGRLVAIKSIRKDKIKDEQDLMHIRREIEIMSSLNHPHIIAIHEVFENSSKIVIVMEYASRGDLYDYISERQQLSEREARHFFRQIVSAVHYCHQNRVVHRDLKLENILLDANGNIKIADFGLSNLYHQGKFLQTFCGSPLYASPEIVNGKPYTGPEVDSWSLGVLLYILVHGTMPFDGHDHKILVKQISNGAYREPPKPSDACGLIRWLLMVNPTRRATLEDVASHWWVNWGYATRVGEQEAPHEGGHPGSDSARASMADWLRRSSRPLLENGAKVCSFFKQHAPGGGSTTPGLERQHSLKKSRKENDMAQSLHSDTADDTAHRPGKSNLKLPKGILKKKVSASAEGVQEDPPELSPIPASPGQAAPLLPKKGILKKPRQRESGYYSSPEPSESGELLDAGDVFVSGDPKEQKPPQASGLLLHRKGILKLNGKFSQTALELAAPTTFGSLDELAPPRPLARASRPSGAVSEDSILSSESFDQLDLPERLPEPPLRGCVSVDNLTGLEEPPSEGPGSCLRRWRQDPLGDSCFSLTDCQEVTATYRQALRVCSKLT
Receptor-interacting serine/threonine-protein kinase 1 (Homo sapiens), sequence (Q13546 whole entry, the tested form may be a part): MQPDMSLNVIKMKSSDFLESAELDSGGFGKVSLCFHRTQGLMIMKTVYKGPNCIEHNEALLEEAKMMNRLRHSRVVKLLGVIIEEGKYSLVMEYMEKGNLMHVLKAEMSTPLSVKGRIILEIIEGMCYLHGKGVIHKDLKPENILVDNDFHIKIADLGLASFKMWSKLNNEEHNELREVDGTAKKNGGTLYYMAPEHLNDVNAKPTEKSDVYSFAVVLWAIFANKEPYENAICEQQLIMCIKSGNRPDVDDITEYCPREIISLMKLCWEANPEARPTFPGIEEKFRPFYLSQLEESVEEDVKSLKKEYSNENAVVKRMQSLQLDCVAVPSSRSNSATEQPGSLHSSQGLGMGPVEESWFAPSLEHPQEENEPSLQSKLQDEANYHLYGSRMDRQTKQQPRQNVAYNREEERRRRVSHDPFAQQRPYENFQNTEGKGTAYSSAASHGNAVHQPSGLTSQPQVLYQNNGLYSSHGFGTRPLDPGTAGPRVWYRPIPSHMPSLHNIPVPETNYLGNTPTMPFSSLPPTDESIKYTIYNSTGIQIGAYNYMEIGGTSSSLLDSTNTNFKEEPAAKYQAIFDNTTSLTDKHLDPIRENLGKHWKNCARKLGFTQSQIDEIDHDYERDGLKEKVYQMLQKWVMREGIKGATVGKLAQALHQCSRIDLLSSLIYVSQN

CC(C)Nc1sc(C(=O)c2ccc(Cl)s2)c(N)c1C#N
Activity [1]: 100% | Activity [2]: 97% | Activity [3]: 80% | Activity [4]: 89% | Activity [5]: 66% | Activity [6]: 100% | Activity [7]: 91% | Activity [8]: 100% | Activity [9]: 100% | Activity [10]: 84% | Activity [11]: 100% | Activity [12]: 80% | Activity [13]: 100% | Activity [14]: 74% | Activity [15]: 93% | Activity [16]: 100% | Activity [17]: 80% | Activity [18]: 100% | Activity [19]: 49% | Activity [20]: 100% | Activity [21]: 57% | Activity [22]: 95% | Activity [23]: 88% | Activity [24]: 74%

Reference: ChEMBL document CHEMBL4330132, “5-Keto-3-cyano-2,4-diaminothiophenes as selective maternal embryonic leucine zipper kinase inhibitors” (Bioorg Med Chem Lett, 2019)
